Assay results as given in PMC4222822, “Discovery and Characterization of a Potent and Selective Inhibitor of Aedes aegypti Inward Rectifier Potassium Channels” (PLoS ONE, 2014).

Assays:
adenosine A1 receptor = target: T1, adenosine A1 receptor (Homo sapiens, UniProt P30542); test: Radioligand displacement assay, adenosine A1 receptor; assay type: binding, mammalian; details: 10 µM VU625
T1 sequence (P30542 1-326): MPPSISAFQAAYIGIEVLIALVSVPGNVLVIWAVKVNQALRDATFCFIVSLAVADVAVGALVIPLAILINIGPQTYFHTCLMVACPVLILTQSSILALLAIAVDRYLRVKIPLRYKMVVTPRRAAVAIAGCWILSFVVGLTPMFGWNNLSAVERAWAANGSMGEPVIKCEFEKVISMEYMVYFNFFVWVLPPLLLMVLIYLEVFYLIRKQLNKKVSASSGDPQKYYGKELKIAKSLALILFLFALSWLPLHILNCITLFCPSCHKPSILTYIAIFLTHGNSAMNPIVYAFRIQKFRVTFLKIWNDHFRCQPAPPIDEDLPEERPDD

Kir7.1(M125R) = target: T2, Kir7.1(M125R) (Homo sapiens, UniProt O60928, M125R); test: Tl+ flux selectivity assay, Kir7.1(M125R); assay type: cell-based; details: n = 2 independent experiments in triplicate, read-out: Inhibition of Tl+ flux (IC50)
T2 construct: expressed in transfected cells
T2 sequence (O60928 1-360 M125R): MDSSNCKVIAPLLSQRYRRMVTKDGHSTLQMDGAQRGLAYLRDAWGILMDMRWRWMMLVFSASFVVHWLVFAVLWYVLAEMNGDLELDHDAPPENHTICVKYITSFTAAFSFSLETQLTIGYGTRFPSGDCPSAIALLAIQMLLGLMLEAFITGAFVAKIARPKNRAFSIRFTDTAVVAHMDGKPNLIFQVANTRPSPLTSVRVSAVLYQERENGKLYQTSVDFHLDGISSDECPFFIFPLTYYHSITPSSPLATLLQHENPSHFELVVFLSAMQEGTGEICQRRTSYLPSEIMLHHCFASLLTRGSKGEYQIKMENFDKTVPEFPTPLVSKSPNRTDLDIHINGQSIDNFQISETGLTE

[1] = system: adult female mosquitoes (A. aegypti); test: Mosquito excretion experiments (excretory capacity); assay type: in vivo, Aedes aegypti; details: 1 h after injection, mean ±SEM
Description: The Aedes aegypti mosquito colony used in the present study is identical to that described previously. As before, only adult female mosquitoes 3–10 days post emergence were utilized for experiments.
The excretory capacity of mosquitoes was measured as described. In brief, after anesthetizing mosquitoes on ice, their hemolymph was injected as described above with 900 nL of a K^+-PBS vehicle containing 1.15% DMSO, 0.077% β-cyclodextrin, and 0.008% Solutol, or the vehicle containing VU625 (0.77 mM) to deliver a dose of 690 pmol of VU625 per mosquito. In experiments where probenecid was used, the vehicle was supplemented with water- soluble probenecid […] to deliver a dose of 3.4 nmol of probenecid per mosquito. After injection, the mosquitoes were placed immediately in a graduated, packed-cell volume tube (MidSci, St. Louis, MO; 5 mosquitoes per tube) and held at 28°C. The volume of urine excreted at 60 min post injection was measured as described previously, and all mosquitoes were confirmed to be alive at the end of 60 min period. For each treatment, 6–18 independent trials of 5 mosquitoes per treatment were performed.
Prism (GraphPad Software) was used to generate a dose-response curve for the toxicity of VU625; the doses (x-axis) were first log transformed and then the mortality data was normalized using Prism, where the smallest value and largest values in a data set equal ‘0%’ and ‘100%’, respectively. The data were then fitted using a ‘biphasic’ algorithm (<100 constraint) to calculate potencies (ED25 and ED75 values). To compare 1) the toxic effects among the vehicle, probenecid, VU625, and VU625 + probenecid treatments, and 2) the excretory capacity among the vehicle, probenecid, VU625, and VU625 + probenecid treatments, one-way ANOVAs were performed with Newman-Keuls posttests.

AeKir1 = AeKir1 (Aedes aegypti, UniProt L0EQS9); test: Two-electrode electrophysiology of Xenopus oocytes expressing AeKir1; assay type: cell-based; details: inward current at −140 mV, 95% CI: 2.3–6.3 µM, n = 4–5 oocytes per concentration, read-out: IC50 of AeKir1 current inhibition
Sequence of AeKir1 (L0EQS9 entry or part of it): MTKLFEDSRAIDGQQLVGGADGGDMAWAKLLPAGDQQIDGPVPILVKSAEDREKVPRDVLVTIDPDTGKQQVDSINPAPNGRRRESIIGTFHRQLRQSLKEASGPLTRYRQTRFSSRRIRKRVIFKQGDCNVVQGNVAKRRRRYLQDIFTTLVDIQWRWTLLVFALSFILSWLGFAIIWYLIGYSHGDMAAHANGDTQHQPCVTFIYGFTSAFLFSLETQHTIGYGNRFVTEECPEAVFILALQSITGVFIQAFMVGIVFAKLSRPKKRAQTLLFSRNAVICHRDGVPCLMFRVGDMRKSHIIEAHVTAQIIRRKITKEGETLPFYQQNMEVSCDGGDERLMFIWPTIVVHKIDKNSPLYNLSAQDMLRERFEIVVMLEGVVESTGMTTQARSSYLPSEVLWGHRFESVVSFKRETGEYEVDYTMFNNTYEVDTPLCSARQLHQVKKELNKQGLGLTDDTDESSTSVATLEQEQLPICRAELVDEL
Description: AeKir1 and AeKir2B channels were expressed heterologously in Xenopus laevis oocytes as described previously. In brief, defolliculated Xenopus oocytes (purchased from Ecocyte Bioscience, Austin, TX) were injected with 10 ng (0.35 ng/nL) of either AeKir1 or AeKir2B cRNA and cultured for 3–7 days in OR3 media at 18°C. Oocytes injected with 28 nl of nuclease-free H2O served as controls.
All electrophysiological experiments on Xenopus oocytes were performed at room temperature. When present, VU625 was dissolved in solution III or solution V to a final concentration of 0.1, 1, 5, 15, or 50 µM (0.05% DMSO). All solutions were delivered by gravity to a RC-3Z oocyte chamber (Warner Instruments, Hamden, CT) via polyethylene tubing at a flow rate of ∼2 ml/min. Solution changes were made with a Rheodyne Teflon 8-way Rotary valve (Model 5012, Rheodyne, Rohnert Park, CA).
Electrophysiological recordings from oocytes were conducted as described previously In brief, each oocyte was transferred to the holding chamber under superfusion with solution I and impaled with two conventional-glass microelectrodes backfilled with 3 M KCl (resistances of 0.5–1.5 MΩ) to measure membrane potential (Vm) and whole-cell membrane current (Im), respectively. […] All Vm and Im values were recorded by a Digidata 1440A Data Acquisition System (Molecular Devices) and the Clampex module of pCLAMP. […]

Q: Which radioligand displacement (adenosine A1 receptor) does the source give for `CCC(=O)N1c2ccc(S(=O)(=O)Nc3cccc(OC)c3)cc2CC1C` (centres unmarked) [VU625, N-(3-methoxyphenyl)-2-methyl-1-propionylindoline-5-sulfonamide] here?
A: 76%

Q: What about the IC50 (Kir7.1(M125R)) of the same compound?
A: > 30 µM

Q: What about the “excretory capacity (urine excreted)” value ([1]; VU625 690 pmol + probenecid 3.4 nmol per mosquito in 900 nL vehicle) of the same compound?
A: 236.7±24.53 nL/female

Q: What about the “excretory capacity (urine excreted)” value ([1]; VU625 690 pmol per mosquito in 900 nL vehicle) of the same compound?
A: 583.3±29.52 nL/female

Q: And the IC50 (AeKir1)?
A: 3.8 µM
